Four compounds from patent US10654797B2, “Solid forms of an adamantyl compound, compositions and uses thereof” (NORTH & SOUTH BROTHER PHARMACY INVESTMENT COMPANY LIMITED, priority 2016, dated 2020) can be followed below.

The nature of data set [1]: Crystal form stability: suspension in water stirred 24 hours or storage, solids analyzed by X-ray diffraction. Type of data set: physicochemical. Conditions: for Crystalline form after stirring in water: suspension in water, 24 hours, X-ray diffraction. The method, then: Samples of a mixture of crystalline Form I and Form II of Compound (I) were added to water at room temperature or 60° C. to form suspensions, which were stirred for 24 hours, and solids were analyzed by X-ray diffraction.

The nature of data set [2]: Stability of thin layers under high temperature, high humidity, light and ambient conditions, impurity by HPLC. Type of data set: physicochemical. As for the experimental part: Thin layers (≤5 mm) of crystalline Form I were placed under high temperature (60±2° C.), high humidity (92.5%±2% humidity), light (visible light 4500 lx±500 lx) and ambient temperature (25±2° C., 65%±5% humidity) for 15 days, and samples were analyzed by HPLC on day 5, 9 and 15.

Test in data set [3]: as above
Type of data set: physicochemical. Conditions: day 10, HPLC.

Data set [4] can be described thus: Hygroscopicity: weight gain at controlled relative humidity. Type of data set: physicochemical. Conditions: 25° C.±1° C., 24 hours.
Data set [5] is described as follows: In vivo pharmacokinetics: memantine in plasma after intramuscular administration to rats. Conditions: memantine measured in rat plasma, memantine solution 17.5 mg/kg. The method, then: Compound (I) was tested in an experiment to determine its in vivo conversion to the active compound memantine.
Analytical LC/MS/MS systems: Agilent 1200 Series vacuum degasser, dual-injection pump, orifice autosampler, column incubator, charged spray ionization (ESI) source, and Agilent G6430 three-stage quadrupole mass spectrometer. The quantitative analysis is performed in the MRM mode, with the following MRM conversion parameters:
Waters XBridge TMC18, 2.1×30 mm, 3.5 μM column; 20 μL of sample was injected in each run. Conditions: The mobile phase included […]+2 mM ammonium formate+0.1% formic acid (A) and methanol+2 mM ammonium formate+0.1% formic acid (B). The flow rate was 0.35 mL/min. The mobile phase gradient is as follows: […]
Additional instruments and reagents included Agilent 6330 Series LC/MS/MS spectrometer equipped with a G1312A Binary Injection Pump, G1367A autosampler and MS/MS Detector for analysis; LC/MS/MS spectrometer with ESI source. Suitable cationic model treatments and MRM conversion were used for each analyte using standard solution for optimal analysis. Waters XBridge TMC18 was used with specifications of 2.1×30 mm, 3.5 μM. The reaction was carried out with […] ammonium formate+0.1% formic acid (A) and methanol+2 mM ammonium formate+0.1% formic acid (B). […]

As to `CC12CC3CC(C)(C1)CC(NC(=O)OCOC(=O)c1ccccc1)(C3)C2` (mixture of isomers) [((((1r,3R,5S,7r)-3,5-dimethyladamantan-1-yl)carbamoyl)oxy)methyl benzoate], the “Crystalline form after stirring in water” value was “completely converted to crystalline Form I” in data set [1] (60° C.); “remained as a mixture of crystalline Form I and Form II” in data set [1] (room temperature).

Regarding `CC12CC3CC(C)(C1)CC(NC(=O)OCOC(=O)c1ccccc1)(C3)C2` [Crystalline Form II, ((((1r,3R,5S,7r)-3,5-dimethyladamantan-1-yl)carbamoyl)oxy)methyl benzoate], the “Crystalline form upon long term storage” value in data set [1] (long term storage at room temperature) is reported as “converted to Form I”.

As to `CC12CC3CC(C)(C1)CC(NC(=O)OCOC(=O)c1ccccc1)(C3)C2` [crystalline Form I, ((((1r,3R,5S,7r)-3,5-dimethyladamantan-1-yl)carbamoyl)oxy)methyl benzoate], the percentage of impurity in data set [2] (60 ± 2° C., day 0, HPLC) was found to be 0.04%; in data set [2] (60 ± 2° C., day 5, HPLC) it was 0.04%; in data set [2] (60 ± 2° C., day 15, HPLC), 0.02%; in data set [2] (92.5% ± 2% humidity, day 0, HPLC), 0.04%; in data set [2] (92.5% ± 2% humidity, day 5, HPLC) it was 0.06%; in data set [2] (92.5% ± 2% humidity, day 15, HPLC), 0.02%. The percentage of impurity in data set [2] (ambient temperature (25±2° C., 65%±5% humidity), day 0, HPLC) was found to be 0.04%; in data set [2] (ambient temperature (25±2° C., 65%±5% humidity), day 5, HPLC), 0.04%; in data set [2] (ambient temperature (25±2° C., 65%±5% humidity), day 10, HPLC), 0.04%; in data set [2] (ambient temperature (25±2° C., 65%±5% humidity), day 15, HPLC), 0.01%; in data set [2] (visible light 4500 lx±500 lx, day 0, HPLC), 0.04%; in data set [2] (visible light 4500 lx±500 lx, day 5, HPLC), 0.03%. In addition, the percentage of impurity is given as 0.02% in data set [2] (visible light 4500 lx±500 lx, day 15, HPLC); 0.02% in data set [3] (60 ± 2° C.); 0.06% in data set [3] (92.5% ± 2% humidity); 0.03% in data set [3] (visible light 4500 lx±500 lx). Also, the “chemical change under stress conditions” value in data set [2] (high temperature, high humidity, light and ambient temperature for 15 days) is recorded as “did not exhibit significant chemical change”. Besides, in data set [4] (80% and 92.5% RH), the hygroscopicity result is on record as “lack of hygroscopicity”. Moreover, the weight gain stood at 0.06% in data set [4] (saturated KNO3 aqueous solution (92.5%±2% RH)) and 0.03% in data set [4] (saturated NH4Cl aqueous solution (80%±2% RH)).

In data set [5], `CC12CC3CC(C)(C1)CC(N)(C3)C2` [memantine] had a T1/2 of 4 h.
